Test results published in patent US20220265656A1, “COMBINATION THERAPIES WITH IRE1 SMALL MOLECULE INHIBITORS” (Cornell University, priority 2019, published 2022).
Counter-ions that a name gives are not always drawn.

What was measured:
[1] = target: T1, IRE1a (Homo sapiens, UniProt O75460); test: In vitro FRET assay (IRE1a cleavage of XBP1 RNA probe); type: biochemical; parameters: purchased SignalChem; details: 2 nM IRE1a
Method: In vitro FRET assay was performed to evaluate the ability of select compounds to inhibit IRE1, the results of which are summarized in Table 3. To perform the in vitro FRET assay, 1× complete assay buffer (CAB; […], 50 mM sodium citrate pH 7.15, 1 mM magnesium acetate, 0.02% tween 20) was used to dilute SignalChem IRE1a protein to a final concentration of 2 nM. Selected compounds were serially diluted with DMSO in a non-binding black 384-well plate for a total of 15 ul in each well, 2 ul of the serially diluted compound or DMSO control were then added to new wells containing 98 ul of 1×CAB, for a total volume of 100 ul, 10 ul of which were then transferred to wells of a new plate, 5 ul of the diluted IRE1a was then added to each well, 5 ul of a […] XBP1 RNA probe was then added to each well. Fluorescence was then read over 30 minutes in kinetic mode (485/515 nm).
Two RNA probes were used, XBP1 wildtype (SEQ ID NO: 2) which is able to be spliced by active IRE1a or XBP1 mutant (SEQ ID NO: 3) which is unable to be spliced. Each probe contained a 5′ 6-FAM modification and a 3′ IOWA Black FQ modification. […]

[2] = target: T1, IRE1a; test: IRE1a Endoribonuclease Nanoluciferase Assay in 293T cells; type: cell-based; parameters: endogenous in cells; host or cells: 293T cells; details: XBP1 luciferase reporter in 293T cells, ER stressor
Method: Compounds disclosed herein were assessed for disruption of IRE1 signaling using a IRE1a Endoribonuclease Nanoluciferase Assay. Briefly, 2.5×10^6 293T cells were seeded in a 10 cm^2 tissue culture plate. About 24 hours later, the cells were transfected with Effectene. In a 15 mL tube, the following was added: 2 ug XBP1 luciferase reporter plasmid (PGK-Luc2-P2A-XBP1u-Nanoluciferase-PEST); 300 ul EC buffer; and 16 ul Enhancer, followed by incubation at room temp for 5 minutes. Next, 60 ul Effectene (Qiagen 301427) was added, followed by incubation at room temperature for 10 minutes, 2.6 mL cDMEM media was added. Old media was aspirated from the cells, followed by addition of 7 mL fresh media. Full transfection mixture was added dropwise to cells. Cells were incubated for 6 hours, followed by trypsinization, centrifugation and resuspension in 11 mL fresh cDMEM media, 100 uL of cells were plated per a well in a 96 well plate. A day later, ER stressors of choice +/−inhibitors were added. To harvest, media was aspirated from cells completely, then 50 uL 1× passive lysis buffer (Promega: E1941) was added per well and put on shaker (300 rpm) for 30 minutes at room temperature. Cells were centrifuged, and 15 uL sample per well was added to a new, opaque white 384 well plate (Corning 3570), 15 uL OneGlo (nanoluciferase kit, Promega N1630) was added. Plates were spun down, placed on shaker (300 rpm) for 10 minutes. Plates were read on luminometer, 1000 ms integration time per well, 15 uL Stop and Glo (nanoluciferase kit) was added. Plates were spun down, placed on shaker (300 rpm) for 10 minutes. Plates were read on luminometer, 1000 ms second integration time per well. Recordings are provided below in Table 4.

[3] = Metabolic assays of N,N-dimethyl compounds; type: in vitro ADME; details: data not shown
[4] = system: IRE1a/XBP1 pathway; test: Inhibition of endogenous XBP1 splicing in 293T cells with tunicamycin; type: cell-based, human
Method: Gene expression was evaluated by quantitative PCR for XBP1s and total XBP1 transcripts using the 2^(−ΔCT) method for calculating normalized gene expression. Gene expression levels were normalized to ACTB transcripts. XBP1 splicing was calculated as actin-normalized XBP1s expression divided by actin-normalized total XBP1 expression.

[5] = in vivo; details: mouse
[6] = Bioavailability assay (pharmacokinetic study); details: mouse; IV 1 mg/kg, PO 10 or 30 mg/kg

T1 sequence (O75460 19-977): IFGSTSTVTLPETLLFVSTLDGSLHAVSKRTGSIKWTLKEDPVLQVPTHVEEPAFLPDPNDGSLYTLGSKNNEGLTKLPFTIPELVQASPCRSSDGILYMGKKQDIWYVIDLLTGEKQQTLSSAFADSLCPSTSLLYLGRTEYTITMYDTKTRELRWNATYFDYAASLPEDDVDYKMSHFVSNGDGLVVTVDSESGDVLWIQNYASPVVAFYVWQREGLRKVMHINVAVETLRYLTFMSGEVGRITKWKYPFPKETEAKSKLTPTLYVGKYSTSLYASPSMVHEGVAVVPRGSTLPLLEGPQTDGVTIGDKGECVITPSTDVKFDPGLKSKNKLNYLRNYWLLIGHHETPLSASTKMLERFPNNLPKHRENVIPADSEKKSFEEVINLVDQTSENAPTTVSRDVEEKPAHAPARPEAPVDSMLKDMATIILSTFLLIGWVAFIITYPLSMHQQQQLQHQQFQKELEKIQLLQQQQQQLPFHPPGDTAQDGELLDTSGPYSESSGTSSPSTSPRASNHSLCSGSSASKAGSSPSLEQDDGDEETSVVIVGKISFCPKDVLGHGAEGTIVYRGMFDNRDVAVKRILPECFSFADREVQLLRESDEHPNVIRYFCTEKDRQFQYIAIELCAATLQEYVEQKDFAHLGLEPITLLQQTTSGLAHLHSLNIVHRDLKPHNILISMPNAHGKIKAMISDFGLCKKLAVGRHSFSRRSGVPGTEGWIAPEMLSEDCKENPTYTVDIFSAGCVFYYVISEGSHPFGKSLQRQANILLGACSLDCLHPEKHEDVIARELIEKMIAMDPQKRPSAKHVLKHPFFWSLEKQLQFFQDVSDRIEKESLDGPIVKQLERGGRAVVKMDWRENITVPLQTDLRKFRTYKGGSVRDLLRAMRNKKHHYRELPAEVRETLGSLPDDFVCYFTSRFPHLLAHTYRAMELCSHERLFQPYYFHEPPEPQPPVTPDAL

Structure (SMILES) | IC50 [1] [nM] | EC50 [2] [nM] | further results
CCc1cc(-c2cc(F)c(NS(=O)(=O)c3ccccc3Cl)nc2OC)cc2cnc(N[C@H]3CC[C@H](N(C)C)CC3)nc12 [128; Formic Acid Salt] | ≤ 5 | ≤ 5 | –
CCc1cc(-c2ccc(NS(=O)(=O)c3ccccc3Cl)nc2C)cc2cnc(N[C@H]3CC[C@H](N(C)CC4CCC4)CC3)nc12 [130; Formic Acid Salt] | ≤ 5 | ≤ 5 | –
Cc1nc(NS(=O)(=O)c2ccccc2Cl)ccc1-c1cc(C(C)(F)F)c2nc(N[C@H]3CC[C@H](N(C)C)CC3)ncc2c1 [131; Formic Acid Salt] | ≤ 5 | ≤ 5 | –
CCc1cc(-c2ccc(NS(=O)(=O)c3ccccc3Cl)nc2C)cc2cnc(N[C@H]3CC[C@H](N(C)CCOC)CC3)nc12 [132; Formic Acid Salt] | ≤ 5 | ≤ 5 | –
COc1nc(NS(=O)(=O)c2ccccc2Cl)ccc1-c1cc(C)c2nc(N[C@H]3CC[C@H](N(C)C)CC3)ncc2c1 [133; Formic Acid Salt] | ≤ 5 | ≤ 5 | –
COc1nc(NS(=O)(=O)c2ccccc2Cl)ccc1-c1cc(C(F)(F)F)c2nc(N[C@H]3CC[C@H](N(C)C)CC3)ncc2c1 [135; Formic Acid Salt] | ≤ 5 | ≤ 5 | –
COCc1cc(-c2ccc(NS(=O)(=O)c3ccccc3Cl)nc2OC)cc2cnc(N[C@H]3CC[C@H](N(C)C)CC3)nc12 [137; Formic Acid Salt] | ≤ 5 | ≤ 5 | –
CCc1cc(-c2ccc(NS(=O)(=O)c3ccccc3Cl)nc2OC)cc2cnc(N[C@H]3CC[C@@H](N(C)C)CC3)nc12 [141; Formic Acid Salt] | ≤ 5 | 100 to 10000 | –
COc1nc(NS(=O)(=O)c2ccccc2Cl)c(F)cc1-c1cc(C)c2nc(N[C@H]3CC[C@H](N(C)C)CC3)ncc2c1 [145; Formic Acid Salt] | ≤ 5 | ≤ 5 | –
COc1nc(NS(=O)(=O)c2ccccc2Cl)ccc1-c1cc(F)c2nc(N[C@H]3CC[C@H](N(C)C)CC3)ncc2c1 [148; Formic Acid Salt] | ≤ 5 | ≤ 5 | –
COc1nc(NS(=O)(=O)c2ccccc2Cl)c(F)cc1-c1ccc2nc(N[C@H]3CC[C@H](N(C)C)CC3)ncc2c1 [149; Formic Acid Salt] | ≤ 5 | 5 to 50 | –
CN[C@H]1CC[C@H](Nc2ncc3cc(-c4cc(F)c(NS(=O)(=O)c5ccccc5Cl)nc4OC)ccc3n2)CC1 [150; Formic Acid Salt] | ≤ 5 | 5 to 50 | –
CCc1cc(-c2ccc(NS(=O)(=O)c3ccccc3Cl)nc2C)cc2cnc(N[C@H]3CC[C@H](N(C)C)C[C@@H]3F)nc12 [151; Formic Acid Salt] | ≤ 5 | ≤ 5 | –
CCc1cc(-c2ccc(NS(=O)(=O)c3cccc(Cl)c3Cl)nc2C)cc2cnc(N[C@H]3CC[C@H](N(C)C)CC3)nc12 [152; Formic Acid Salt] | ≤ 5 | ≤ 5 | –
Cc1nc(NS(=O)(=O)c2ccccc2Cl)c(F)cc1-c1ccc2nc(N[C@H]3CC[C@H](N(C)C)CC3)ncc2c1 [153; Formic Acid Salt] | ≤ 5 | 5 to 50 | –
CCc1cc(-c2cnc(NS(=O)(=O)c3ccccc3Cl)nc2OC)cc2cnc(N[C@H]3CC[C@H](N(C)C)CC3)nc12 [154; Formic Acid Salt] | ≤ 5 | ≤ 5 | –
COc1nc(NS(=O)(=O)c2ccccc2Cl)c(F)cc1-c1cc(F)c2nc(N[C@H]3CC[C@H](N(C)C)CC3)ncc2c1 [155; Formic Acid Salt] | ≤ 5 | 50 to 100 | –
CCc1cc(-c2ccc(NS(=O)(=O)c3cccc(F)c3Cl)nc2C)cc2cnc(N[C@H]3CC[C@H](N(C)C)CC3)nc12 [158; Formic Acid Salt] | ≤ 5 | ≤ 5 | –
CCc1cc(-c2nnc(NS(=O)(=O)c3ccccc3Cl)cc2OC)cc2cnc(N[C@H]3CC[C@H](N(C)C)CC3)nc12 [159; Formic Acid Salt] | ≤ 5 | 5 to 50 | –
CCc1cc(-c2ccc(NS(=O)(=O)c3cccc(C)c3Cl)nc2C)cc2cnc(N[C@H]3CC[C@H](N(C)C)CC3)nc12 [160; Formic Acid Salt] | ≤ 5 | ≤ 5 | –
CCc1c(F)c(-c2ccc(NS(=O)(=O)c3ccccc3Cl)nc2C)cc2cnc(N[C@H]3CC[C@H](N(C)C)CC3)nc12 [161; Formic Acid Salt] | ≤ 5 | ≤ 5 | –
CCc1c(F)c(-c2cc(F)c(NS(=O)(=O)c3ccccc3Cl)nc2C)cc2cnc(N[C@H]3CC[C@H](N(C)C)CC3)nc12 [162; Formic Acid Salt] | ≤ 5 | ≤ 5 | –
CCc1c(F)c(-c2cc(F)c(NS(=O)(=O)c3ccccc3Cl)nc2OC)cc2cnc(N[C@H]3CC[C@H](N(C)C)CC3)nc12 [163; Formic Acid Salt] | ≤ 5 | ≤ 5 | –
CCc1cc(-c2ccc(NS(=O)(=O)c3ccccc3Cl)nc2C)cc2cnc(N[C@H]3CC[C@H](N(C)C)CC3)nc12 [Compound 91, 2-chloro-N-(5-(2-(((1r,4r)-4-(dimethylamino)cyclohexyl)amino)-8-ethylquinazolin-6-yl)-6-methylpyridin-2-yl)benzenesulfonamide] | – | – | metabolism of N,N-dimethyl compounds [3]: removal of the methyl groups; shift in potency between Compound A and Compound C (XBP1 splicing inhibition) [4]: approximately 3.6 ×
CCc1cc(-c2ccc(NS(=O)(=O)c3ccccc3Cl)nc2OC)cc2cnc(N[C@H]3CC[C@H](N(C)C)CC3)nc12 [Compound 99] | – | – | bioavailability [5]: 70%
CCc1cc(-c2ccc(NS(=O)(=O)c3ccccc3Cl)nc2C)cc2cnc(N[C@H]3CC[C@H](N)CC3)nc12 [Compound A, N-(5-(2-(((1r,4r)-4-aminocyclohexyl)amino)-8-ethylquinazolin-6-yl)-6-methylpyridin-2-yl)-2-chlorobenzenesulfonamide] | – | – | oral bioavailability [6]: 4%
